From patent publication US20240139149A1, “THERAPEUTIC USES OF UROLITHIN DERIVATIVES” (Vandria SA, priority 2022, published 2024)

Experiments:
AOM-induced colon tumors = experiment: AOM-induced colorectal tumorigenesis, UA-containing diet; type: in vivo, mouse; conditions: FVB mice
Description: Urolithin A containing diet (2.28 g/kg) or AIN− 93G control food (Brogaarden) were given ad libitum once introduced for experimental purpose at the indicated time. Animal experiments were approved by the Regierungsprasidium Darmstadt under animal application numbers F123/1009; F123/1062 and F123/2008.
Colorectal tumors were induced by 6 consecutive weekly injections of AOM on mice fed with food containing 2.28 g/kg Urolithin A (UA diet) or with control food. The diet was introduced one-week prior the first AOM injection and maintained until the end of the experiment at ˜20-24 weeks. The colons were collected for subsequent histological analysis as described below. For subcutaneous colorectal cancers, APTK organoids were mechanistically disrupted, incubated with Accutase to generate a single cell suspension and reconstituted in PBS 20% Matrigel (Corning) for subcutaneous transplantation. Tumor sizes were measured at the indicated time after transplantation and tumor volume quantified as ½(width2×length). Urolithin A or control food regiment were initiated either one week before tumor challenge or 11 days after tumor development. Therapeutic diets were maintained throughout the experiment unless indicated otherwise. […] CD8-depleting antibodies (InvivoMab anti-mouse CD8; Hoelzel; BE0061) or isotype controls (InvivoMab rat IgG2b isotyp; Hoelzel; BE0090) were applied every three days, starting at five days after tumor initiation. To study combination efficacy with immunotherapy, mice were injected i.p. with 100 μl nVivoMAb anti-mouse PD-1 (Hoelzel; BE0146) and InVivoMab mouse IgG2b isotype control (Hoelzel; BE0086) every 2 days, starting three days after tumor injection.
For histological analysis of colon tissue, colons were paraffin embedded using the “swiss roll” technique and serially sectioned at […]. […] AOM tumor lesion size and incidence were quantified using Aperio ImageScope software.

[1] = tested on: CD19-CAR T cells / Nalm-6 cells; experiment: CD19-CAR T cell generation in presence of UA and Nalm-6 killing; type: cell-based, human
mouse T lymphocytes = experiment: Mitochondrial content (Mitotracker positive cells) in mouse T lymphocytes; type: cell-based; conditions: 2 μM, 72 h
Method: Splenic murine T cells were isolated from mice aged 6-20 weeks by negative selection with EasySep mouse T cell isolation kit (Stem cell) according to the manufacturer's instructions. T cell activation was initiated using CD3/CD28 activation beads (11456D; ThermoFisher Scientific) at a ratio of 25 μl dynabeads per 0.5×10^6 T-cells. Cells were activated with test compounds at 2 μM or DMSO in T cell activation Medium (RPMI (ThermoFisher Scientific) 10% FBS (South America origin), 10 mM Hepes (Sigma), 1× Non-Essential Amino Acid, 1 mM Sodium Pyruvate, 50 μM β-Mercaptoethanol, 100 U/ml penicillin, 100 μg/ml streptomycin and 2 mM Glutamax (ThermoFisher Scientific) for 72 h. For subsequent analysis, activating beads were magnetically removed prior staining.
For flow cytometric analysis of mitochondria 500 μl of Mitotracker Red (200 nM; ThermoFisher) was applied followed by surface staining.
Cell doublets and cells debris were excluded from the analysis by gating FSC-A vs FSC-H followed by SSC-A vs SSC-H dot plots and FSC-A vs SSC-A dot plots, respectively. eFluor 780 highly positive cells, i.e, dead cells, were gated out of the analysis. Data was acquired on Canto II (BD), Fortessa (BD) and Aurora (Cytek) cytometers and analyzed with FlowJo.

[2] = AOM weekly for six weeks, oral UA diet 2.28 g/kg vs control diet

Structure (SMILES) | tumor incidence (AOM-induced colon tumors; [2]) | tumor size (AOM-induced colon tumors; [2]) | infiltration of CD3+ T cells into the colonic mucosa (AOM-induced colon tumors; AOM, oral UA diet 2.28 g/kg) | CAR gene delivery into CD8+ cells [1] | CD19 CAR-T cell mediated killing of NALM-6 leukemia cells ([1]; 24 h co-culture) | markers of exhaustion (Tim3HiPD-1Hi CD8+CAR+) ([1]; three days after transduction) | CAR expressing TSCM cells as share of CD8+ cells ([1]; three days post transduction, upon UA exposure) | increase in the percentage of Mitotracker positive cells vs DMSO (mouse T lymphocytes) | percentage of Mitotracker positive cells (mouse T lymphocytes; DMSO 44%)
O=c1oc2cc(O)ccc2c2ccc(O)cc12 [UA, Urolithin A] | significant decrease | significant decrease | increased infiltration | did not impair | did not have a negative impact | not affected | about 60% |  | 
O=c1oc2cc(O)ccc2c2ccc(OC3CCOCC3)cc12 [compound 33, 3-hydroxy-8-((tetrahydro-2H-pyran-4-yl)oxy)-6H-benzo[c]chromen-6-one] |  |  |  |  |  |  |  | 19% | 52.5%
